Reference: US9663513B2, “Pyrimidine PDE10 inhibitors” (Merck Sharp & Dohme Corp., priority 2012, dated 2017)

Target: human PDE10A2 (Homo sapiens (Human), UniProt Q9Y233)
Assay: PDE10 fluorescence polarization (IMAP FP) inhibition assay
Type: biochemical
Conditions: human PDE10A2 from transfected AD293 cells; FAM-labeled cAMP 50 nM; apparent inhibition constant; read-out: PDE10A Ki
In short: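 Cytoplasmic lysate of AD293 cells transiently expressing human PDE10A2 (enzyme level giving 20% conversion) incubated with 50 nM FAM-cAMP in pH 7.2 Tris/MgCl2 buffer, 30 min at room temperature. IMAP binding solution added, FP read after ≥1 h; 10-point 3-fold compound titrations fitted to a four-parameter equation.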

Sequence of human PDE10A2 (Q9Y233 267-1055): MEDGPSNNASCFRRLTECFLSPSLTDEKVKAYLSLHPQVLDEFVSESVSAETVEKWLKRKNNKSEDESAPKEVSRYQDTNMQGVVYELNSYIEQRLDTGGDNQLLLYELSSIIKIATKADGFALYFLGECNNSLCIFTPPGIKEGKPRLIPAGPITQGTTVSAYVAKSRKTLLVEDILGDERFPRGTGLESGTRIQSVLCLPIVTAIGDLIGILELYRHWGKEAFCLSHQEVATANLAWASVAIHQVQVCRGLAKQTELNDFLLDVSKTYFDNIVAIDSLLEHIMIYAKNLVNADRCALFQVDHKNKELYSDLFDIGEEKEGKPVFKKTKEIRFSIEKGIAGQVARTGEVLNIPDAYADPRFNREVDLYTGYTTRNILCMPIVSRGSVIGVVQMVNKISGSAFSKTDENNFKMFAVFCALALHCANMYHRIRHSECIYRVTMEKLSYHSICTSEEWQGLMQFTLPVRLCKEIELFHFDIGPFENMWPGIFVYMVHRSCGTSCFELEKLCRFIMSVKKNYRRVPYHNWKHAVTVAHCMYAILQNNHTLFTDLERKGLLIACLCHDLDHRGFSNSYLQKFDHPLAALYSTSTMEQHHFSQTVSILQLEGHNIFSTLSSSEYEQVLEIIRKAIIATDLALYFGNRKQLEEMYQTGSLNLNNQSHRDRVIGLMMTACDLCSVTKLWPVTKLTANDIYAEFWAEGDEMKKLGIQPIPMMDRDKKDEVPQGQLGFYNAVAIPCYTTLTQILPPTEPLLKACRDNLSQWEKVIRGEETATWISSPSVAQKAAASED

Compound | Ki
Cc1ccnc([C@H]2C[C@@H]2COc2nc(C)ncc2C2CCC(=O)CC2)c1 [Example 203, 4-(2-methyl-4-(((1S,2S)-2-(4-methylpyridin-2-yl)cyclopropyl)methoxy)pyrimidin-5-yl)cyclohexanone] | 30.8 nM
Cc1ccc([C@H]2C[C@@H]2COc2nc(C)ncc2[C@H]2CC[C@@H](C(C)(C)O)CC2)nc1 [Example 221, (cis)2-(4-(2-methyl-4-(((1S,2S)-2-(5-methylpyridin-2-yl)cyclopropyl)methoxy)pyrimidin-5-yl)cyclohexyl)propan-2-ol] | 12.6 nM
COC(=O)c1ccc(-c2cnc(C)nc2OC[C@H]2C[C@@H]2c2ccc(C)cn2)cn1 [Example 47, methyl 5-(2-methyl-4-(((1S,2S)-2-(5-methylpyridin-2-yl)cyclopropyl)methoxy)pyrimidin-5-yl)picolinate] | 2.2 nM
COc1ccc([C@H]2C[C@@H]2COc2nc(C)ncc2-c2cnc(C(C)(C)O)cn2)nc1 [Example 66, 2-(5-(4-(((1S,2S)-2-(5-methoxypyridin-2-yl)cyclopropyl)methoxy)-2-methylpyrimidin-5-yl)pyrazin-2-yl)propan-2-ol] | 3.14 nM
Cc1ncc(-c2ccc(C(C)(C)O)nc2)c(OC[C@@H]2C[C@H]2c2ccc(Br)cn2)n1 [Example 124, 2-(5-(4-(((1R,2R)-2-(5-bromopyridin-2-yl)cyclopropyl)methoxy)-2-methylpyrimidin-5-yl)pyridin-2-yl)propan-2-ol] | 8.57 nM
COc1ccc([C@H]2C[C@@H]2COc2nc(C)ncc2-c2ccnc(F)c2)nc1 [Example 21, 5-(2-fluoropyridin-4-yl)-4-(((1S,2S)-2-(5-methoxypyridin-2-yl)cyclopropyl)methoxy)-2-methylpyrimidine] | 0.33 nM
COC(=O)c1cnc(-c2cnc(C)nc2OC[C@H]2C[C@@H]2c2ccc(OC)cn2)cn1 [Example 97, methyl 5-(4-(((1S,2S)-2-(5-methoxypyridin-2-yl)cyclopropyl)methoxy)-2-methylpyrimidin-5-yl)pyrazine-2-carboxylate] | 9.74 nM
Cc1ccc([C@H]2C[C@@H]2COc2nc(C)ncc2-c2ccccc2OC(F)(F)F)nc1 [Example 5] | 3.15 nM
COc1ccc([C@H]2C[C@@H]2COc2nc(C)ncc2C2CCCC(=O)C2)nc1 (stereo partly drawn) [Example 207, 3-(4-(((1S,2S)-2-(5-Methoxypyridin-2-yl)cyclopropyl)methoxy)-2-methylpyrimidin-5-yl)cyclohexanone] | 0.48 nM
COc1ccc([C@H]2C[C@@H]2COc2nc(C)ncc2-c2ccc(-c3nnn(C)n3)cc2)nc1 [Example 223, 4-(((1S,2S)-2-(5-methoxypyridin-2-yl)cyclopropyl)methoxy)-2-methyl-5-(4-(2-methyl-2H-tetrazol-5-yl)phenyl)pyrimidine] | 2.02 nM
Cc1ncc([C@H]2CC[C@@H](O)CC2)c(OC[C@H]2C[C@H]2c2ccc3ccccc3n2)n1 [Example 193, (1R,4s)-4-(2-methyl-4-(((1S,2R)-2-(quinolin-2-yl)cyclopropyl)methoxy)pyrimidin-5-yl)cyclohexanol] | 0.07 nM
Cc1ccc([C@H]2C[C@@H]2COc2nc(C)ncc2-c2ccc(C)cc2C)nc1 [Example 2, 5-(2,4-dimethylphenyl)-2-methyl-4-(((1S,2S)-2-(5-methylpyridin-2-yl)cyclopropyl)methoxy)pyrimidine] | 2.44 nM
CCn1nnnc1-c1ccc(-c2cnc(C)nc2OC[C@H]2C[C@@H]2c2ccc(OC)cn2)cc1 [Example 226, 5-(4-(1-ethyl-1H-tetrazol-5-yl)phenyl)-4-(((1S,2S)-2-(5-methoxypyridin-2-yl)cyclopropyl)methoxy)-2-methylpyrimidine] | 0.77 nM
COc1ccc([C@H]2C[C@@H]2COc2nc(C)ncc2-c2ccc(C#N)cc2)nc1 [Example 171, 4-(4-(((1S,2S)-2-(5-methoxypyridin-2-yl)cyclopropyl)methoxy)-2-methylpyrimidin-5-yl)benzonitrile] | 1.19 nM
COc1ccc([C@H]2C[C@@H]2COc2nc(C)ncc2-c2cc(=O)n(C)n2C)nc1 [Example 239, 5-(4-(((1S,2S)-2-(5-methoxypyridin-2-yl)cyclopropyl)methoxy)-2-methylpyrimidin-5-yl)-1,2-dimethyl-1,2-dihydropyrazol-3-one] | 7.7 nM
COc1ccc([C@H]2C[C@@H]2COc2nc(C)ncc2C2=CC(=O)CC2)nc1 [Example 77, 3-(4-(((1S,2S)-2-(5-methoxypyridin-2-yl)cyclopropyl)methoxy)-2-methylpyrimidin-5-yl)cyclopent-2-enone] | 6.28 nM
Cc1ncc(C2CCC3(CC2)OCCO3)c(OC[C@H]2C[C@@H]2c2ccc3ccccc3n2)n1 [Example 190, 2-((1S,2S)-2-((2-methyl-5-(1,4-dioxaspiro[4.5]decan-8-yl)pyrimidin-4-yloxy)methyl)cyclopropyl)quinoline] | 0.06 nM
CCc1ccc(-c2cnc(C)nc2OC[C@H]2C[C@@H]2c2ccc3ccccc3n2)cc1 (single isomer, unassigned) [Example 31] | 7.95 nM
Cc1ccc([C@H]2C[C@@H]2COc2nc(C)ncc2-c2ccncc2C(F)(F)F)nc1 [Example 17, 2-methyl-4-(((1S,2S)-2-(5-methylpyridin-2-yl)cyclopropyl)methoxy)-5-(3-(trifluoromethyl)pyridin-4-yl)pyrimidine] | 0.59 nM
Cc1ccc([C@H]2C[C@@H]2COc2nc(C)ncc2-c2ccc(F)c(F)c2)nc1 [Example 15, 5-(3,4-difluorophenyl)-2-methyl-4-(((1S,2S)-2-(5-methylpyridin-2-yl)cyclopropyl)methoxy)pyrimidine] | 1.11 nM

Continued, values first:

Ki | Compound
2.62 nM | COc1ccc([C@H]2C[C@@H]2COc2nc(C)ncc2-c2ccc([S+](C)[O-])nc2)nc1 (single isomer, unassigned) [Example 65]
15.3 nM | CC[C@]1(O)CC[C@H](c2cnc(C)nc2OC[C@H]2C[C@@H]2c2ccc(C)cn2)CC1 [Example 215, (trans)1-Ethyl-4-(2-methyl-4-(((1S,2S)-2-(5-methylpyridin-2-1)cyclopropyl)methoxy)pyrimidin-5-yl)cyclohexanol]
14 nM | CCOC(=O)c1[nH]nnc1-c1cnc(C)nc1OC[C@H]1C[C@@H]1c1ccc(OC)cn1 [Example 248, ethyl 4-(4-(((1S,2S)-2-(5-methoxypyridin-2-yl)cyclopropyl)methoxy)-2-methylpyrimidin-5-yl)-1H-1,2,3-triazole-5-carboxylate]
0.02 nM | Cc1ncc(-c2cnc3[nH]ncc3c2)c(OC[C@H]2C[C@@H]2c2ccc3ccccc3n2)n1 (single isomer, unassigned) [Example 151]
4.03 nM | Cc1ncc(-c2cccn3ccnc23)c(OC[C@H]2C[C@@H]2c2ccc3ccccc3n2)n1 [Example 134, 2-((1S,2S)-2-((5-(imidazo[1,2-a]pyridin-8-yl)-2-methylpyrimidin-4-yloxy)methyl)cyclopropyl)quinoline]
1.04 nM | Cc1ncc(-c2ccc(C3(O)CCCC3)nc2)c(OC[C@H]2C[C@@H]2c2ccccn2)n1 [Example 120, 1-(5-(2-methyl-4-(((1S,2S)-2-(pyridin-2-yl)cyclopropyl)methoxy)pyrimidin-5-yl)pyridin-2-yl)cyclopentanol]
3.3 nM | COc1ccc([C@H]2C[C@@H]2COc2nc(C)ncc2-c2ccc(-c3nnn(C(F)F)n3)cc2)nc1 [Example 227, 5-(4-(2-(difluoromethyl)-2H-tetrazol-5-yl)phenyl)-4-(((1S,2S)-2-(5-methoxypyridin-2-yl)cyclopropyl)methoxy)-2-methylpyrimidine]
1.36 nM | COc1ccc([C@H]2C[C@@H]2COc2nc(C)ncc2-c2c[nH]nn2)nc1 [Example 245, 4-(((1S,2S)-2-(5-methoxypyridin-2-yl)cyclopropyl)methoxy)-2-methyl-5-(1H-1,2,3-triazol-4-yl)pyrimidine]
5.95 nM | CCc1ccc([C@H]2C[C@@H]2COc2nc(C)ncc2-c2ccc(C(C)(C)O)nc2)nc1 (single isomer, unassigned) [Example 180]
0.03 nM | Cc1ncc(-c2ccc(CO)cc2)c(OC[C@H]2C[C@@H]2c2ccc3ccccc3n2)n1 (single isomer, unassigned) [Example 38]
1.08 nM | COc1ccc([C@H]2C[C@@H]2COc2nc(C)ncc2-c2ccc(-c3nnnn3C)cc2)nc1 [Example 224, 4-(((1S,2S)-2-(5-methoxypyridin-2-yl)cyclopropyl)methoxy)-2-methyl-5-(4-(1-methyl-1H-tetrazol-5-yl)phenyl)pyrimidine]
1.16 nM | CCn1nnnc1-c1ccc(-c2cnc(C)nc2OC[C@H]2C[C@@H]2c2ccc(OC)cn2)cn1 [Example 233, 5-(6-(1-ethyl-1H-tetrazol-5-yl)pyridin-3-yl)-4-(((1S,2S)-2-(5-methoxypyridin-2-yl)cyclopropyl)methoxy)-2-methylpyrimidine]
37.3 nM | Cc1ccc([C@H]2C[C@@H]2COc2nc(C)ncc2-c2cccn3ccnc23)nc1 [Example 135, 8-(2-methyl-4-(((1S,2S)-2-(5-methylpyridin-2-yl)cyclopropyl)methoxy)pyrimidin-5-yl)imidazo[1,2-a]pyridine]
0.02 nM | Cc1ncc(-c2ccc(C(C)(C)O)nc2)c(OC[C@H]2C[C@@H]2c2ccc3ccccc3n2)n1 [Example 157, 2-(5-(2-methyl-4-(((1S,2S)-2-(quinolin-2-yl)cyclopropyl)methoxy)pyrimidin-5-yl)pyridin-2-yl)propan-2-ol]
0.06 nM | Cc1ccc([C@H]2C[C@@H]2COc2nc(C)ncc2-c2ccc(C(C)(C)O)nc2)nc1 (single isomer, unassigned) [Example 46]
0.1 nM | COc1ccc(-c2cnc(C)nc2OC[C@H]2C[C@@H]2c2ccc3ccccc3n2)cc1 (single isomer, unassigned) [Example 28]
1.64 nM | COc1ccc([C@H]2C[C@@H]2COc2nc(C)ncc2-c2cnc(O)nc2)nc1 [Example 70, 4′-(((1S,2S)-2-(5-methoxypyridin-2-yl)cyclopropyl)methoxy)-2′-methyl-5,5′-bipyrimidin-2-ol]
